# Source: patent publication US12240854B2, “TRAF 6 inhibitors” (Helmholtz Zentrum München - Deutsches Forschungszentrum für …, priority 2018, dated 2025)
# pIC50: −log10 of the molar value. “Also recorded” adds a separate entry of the source.
# Biological target: T1, TRAF6WTStrepII-Ubc13FH interaction (Homo sapiens, UniProt Q9Y4K3)
# T1 construct: RING-Zincfinger1 (RZ1) domain (residues 50-159) of human TRAF6 wildtype; made in house; host or cells: E. coli BL21 codon plus RIPL
# T1 sequence (Q9Y4K3 with tags, fused parts or gaps): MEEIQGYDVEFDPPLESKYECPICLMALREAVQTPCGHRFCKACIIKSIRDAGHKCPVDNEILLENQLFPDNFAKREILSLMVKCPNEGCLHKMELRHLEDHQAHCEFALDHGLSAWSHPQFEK
# Test: ALPHAScreen TRAF6-Ubc13 interaction assay
# Type: binding
# Settings: not given
# Description: In order to identify small molecules that specifically target the RZ1 domain of TRAF6 and thereby prevent its binding to Ubc13, the ALPHAScreen technology (PerkinElmer) was chosen to detect TRAF6WTStrepII-Ubc13FH interaction in High-Throughput-Screenings as well as Structure Activity Relationship (SAR) analysis.
# For performance of an automated ALPHAScreen assay, all following components were pre-diluted in ALPHAScreen buffer (1×PBS, 0.5% BSA, 0.01% Tween-20). First, the TRAF6 protein (end concentration 100 nM, 30 μL volume) was added to 384-well-opti-plates involving the MultiFlo dispensing system (BioTek) followed by transfer of the compounds via the Sciclone G3 transfer station (PerkinElmer). After addition of Ubc13FH (end concentration 75 nM, 10 μL volume) with the MultiFlo system and incubation for one hour at room temperature, both beads (Strep-Tactin Alpha Donor beads and Nickel-Chelate acceptor beads; end concentrations 4 μg each, 10 μL volume each) were mixed and added using the MultiFlo system in subdued light. Read-out of the plates occurred after another hour of incubation at room temperature. Statistical parameters including the coefficient of variation, Z′ factor and signal window were calculated to determine the quality of the HTS campaign. To evaluate the efficacy of the compounds, ALPHAScreen units of compound-treated samples were referred to DMSO control treated samples. Thereby, the TRAF6D57K mutant served as the control for minimum signal and was included on every plate of the screening. Compounds that inhibited TRAF6WTStrepII-Ubc13FH by more than 25% were considered as actives. After elimination of ALPHAScreen frequent hitter compounds and His-tag frequent hitters (Schorpp, K., I. Rothenaigner, E. Salmina, et al., Identification of Small-Molecule Frequent Hitters from AlphaScreen High-Throughput Screens. J Biomol Screen, 2014. 19(5): p. 715-26), 178 compounds were defined as primary hits and were subsequently tested in five-point serial dilution assays (2.5-40 μM) in TRAF6WTStrepII-Ubc13FH ALPHAScreen experiments. Only compounds with dose-dependent effects on TRAF6WTStrepII-Ubc13FH (n=27) were taken for further research. For analog testing, all compounds were analyzed in ten-point titration (0.2-100 μM) in TRAF6WTStrepII-Ubc13FH ALPHAScreen experiments. In parallel, the compounds were tested in the ALPHAScreen TruHits Kit (PerkinElmer) to rule out unspecific interference with the ALPHAScreen technology.
row,SMILES,inhibition of TRAF6-Ubc13 interaction in ALPHAScreen (in words)
1,"Cc1nn(-c2ccc3nnc(C)n3n2)c(C)c1CCC(=O)N1CCN(c2ccccc2)CC1 [Example C25, 3-(3,5-dimethyl-1-(3-methyl-[1,2,4]triazolo[4,3-b]pyridazin-6-yl)-1H-pyrazol-4-yl)-1-(4-phenylpiperazin-1-yl)propan-1-one]",promising hit; also recorded: best results in in-vitro and cell-based assays

# Same assay, conditions: TRAF6 100 nM, Ubc13FH 75 nM; class symbols; read-out: IC50 Alphascreen (inhibition of TRAF6-UBC13 interaction)
pIC50,inhibition at 100 µM [%],SMILES
≥ 5.52,,Cc1nn(-c2ccc3nnc(C)n3n2)c(C)c1CCC(=O)N1CCN(Cc2cccc(C(F)(F)F)c2)CC1 [Example 159]
≥ 5.52,,Cc1ccccc1CN1CCN(C(=O)CCc2c(C)nn(-c3ccc4nnc(C)n4n3)c2C)CC1 [Example 160]
≥ 5.52,,Cc1nn(-c2ccc3nnc(C)n3n2)c(C)c1CCC(=O)N1CCN(Cc2cccc(C3CC3)c2)CC1 [Example 161]
≥ 5.00,,Cc1nn(-c2ccc3nnc(C)n3n2)c(C)c1CCC(=O)N1CCN(Cc2ccc(F)c(C(F)(F)F)c2)CC1 [Example 162]
≥ 5.52,,Cc1nn(-c2ccc3nnc(C)n3n2)c(C)c1CCC(=O)N1CCN(Cc2cccc(Br)c2)CC1 [Example 163]
≥ 5.52,,Cc1nn(-c2ccc3nnc(C)n3n2)c(C)c1CCC(=O)N1CCN(Cc2ccc(-c3nnn[nH]3)cc2)CC1 [Example 164]
≥ 5.00,,Cc1nn(-c2ccc3nnc(C)n3n2)c(C)c1CCC(=O)N1CCN(Cc2ccc3cc[nH]c3c2)CC1 [Example 165]
≥ 5.00,,Cc1nn(-c2ccc3nnc(C)n3n2)c(C)c1CCC(=O)N1CCN(Cc2ccc3oc(=O)ccc3c2)CC1 [Example 166]
,≥ 30,Cc1nn(-c2ccc3nnc(C)n3n2)c(C)c1CCC(=O)NC1CCN(c2ccccc2)CC1 [Example 167]
≥ 5.00,,Cc1nn(-c2ccc3nnc(C)n3n2)c(C)c1CCC(=O)N1CCC(Oc2ccccc2)CC1 [Example 168]
≥ 5.00,,Cc1nn(-c2ccc3nnc(C)n3n2)c(C)c1CCC(=O)N1CCN(Cc2ccc(-c3nnn[nH]3)cc2F)CC1 [Example 169]
≥ 5.52,,Cc1nn(-c2ccc3nnc(C(F)(F)F)n3n2)c(C)c1CCC(=O)N1CCN(Cc2ccc(-c3nnn[nH]3)cc2F)CC1 [Example 170]
≥ 5.52,,Cc1nn(-c2ccc3nnc(C)n3n2)c(C)c1CCC(=O)N1CCN(Cc2cc(-c3nnn[nH]3)ccc2Cl)CC1 [Example 171]
≥ 5.52,,Cc1nn(-c2ccc3nnc(C(F)(F)F)n3n2)c(C)c1CCC(=O)N1CCN(Cc2cc(-c3nnn[nH]3)ccc2Cl)CC1 [Example 172]
≥ 5.52,,Cc1nn(-c2ccc3nnc(C)n3n2)c(C)c1CCC(=O)N1CCN(Cc2ccc(-c3nnn[nH]3)cc2Cl)CC1 [Example 173]
≥ 5.52,,Cc1nn(-c2ccc3nnc(C(F)(F)F)n3n2)c(C)c1CCC(=O)N1CCN(Cc2ccc(-c3nnn[nH]3)cc2Cl)CC1 [Example 174]
≥ 5.52,,Cc1nn(-c2ccc3nnc(C)n3n2)c(C)c1CCC(=O)N1CCN(Cc2cccc(-c3nnn[nH]3)c2Cl)CC1 [Example 175]

pIC50,inhibition at 100 µM [%],SMILES
≥ 5.52,,Cc1nn(-c2ccc3nnc(C(F)(F)F)n3n2)c(C)c1CCC(=O)N1CCN(Cc2cccc(-c3nnn[nH]3)c2Cl)CC1 [Example 176]
≥ 5.52,,Cc1nn(-c2ccc3nnc(C)n3n2)c(C)c1CCC(=O)N1CCN(Cc2cc(F)cc(-c3nnn[nH]3)c2)CC1 [Example 177]
≥ 5.52,,Cc1nn(-c2ccc3nnc(C(F)(F)F)n3n2)c(C)c1CCC(=O)N1CCN(Cc2cc(F)cc(-c3nnn[nH]3)c2)CC1 [Example 178]
≥ 5.52,,Cc1nn(-c2ccc3nnc(C)n3n2)c(C)c1CCC(=O)N1CCN(Cc2cccc(-c3nnn[nH]3)c2C)CC1 [Example 179]
≥ 5.00,,Cc1nn(-c2ccc3nnc(C(F)(F)F)n3n2)c(C)c1CCC(=O)N1CCN(Cc2cccc(-c3nnn[nH]3)c2C)CC1 [Example 180]
≥ 4.52,,Cc1nn(-c2ccc3nnc(C(F)(F)F)n3n2)c(C)c1CCC(=O)N1CCN(Cc2cc(F)cc(C#N)c2)CC1 [Example 181]
≥ 5.00,,Cc1nn(-c2ccc3nnc(C)n3n2)c(C)c1CCC(=O)N1CCN(Cc2ccc(C#N)cc2F)CC1 [Example 182]
≥ 5.52,,Cc1nn(-c2ccc3nnc(C(F)(F)F)n3n2)c(C)c1CCC(=O)N1CCN(Cc2cc(C#N)ccc2Cl)CC1 [Example 183]
≥ 5.00,,Cc1nn(-c2ccc3nnc(C)n3n2)c(C)c1CCC(=O)N1CCN(Cc2cccc(C#N)c2Cl)CC1 [Example 184]
≥ 5.52,,Cc1nn(-c2ccc3nnc(C)n3n2)c(C)c1CCC(=O)N1CCN(Cc2cccc(C#N)c2C)CC1 [Example 185]
≥ 5.00,,Cc1nn(-c2ccc3nnc(C(F)(F)F)n3n2)c(C)c1CCC(=O)N1CCN(Cc2cccc(C#N)c2C)CC1 [Example 186]
≥ 5.00,,Cc1nn(-c2ccc3nnc(C(F)(F)F)n3n2)c(C)c1CCC(=O)N1CCN(Cc2cccc(C#N)c2Cl)CC1 [Example 187]
≥ 4.52,,Cc1nn(-c2ccc3nnc(C)n3n2)c(C)c1CCC(=O)N1CCN(Cc2ccc(C#N)cc2Cl)CC1 [Example 188]
≥ 4.52,,Cc1nn(-c2ccc3nnc(C(F)(F)F)n3n2)c(C)c1CCC(=O)N1CCN(Cc2ccc(C#N)cc2Cl)CC1 [Example 189]
≥ 5.52,,Cc1nn(-c2ccc3nnc(C(F)(F)F)n3n2)c(C)c1CCC(=O)N1CCN(Cc2ccc(C#N)cc2F)CC1 [Example 190]
≥ 5.00,,Cc1nn(-c2ccc3nnc(C)n3n2)c(C)c1CCC(=O)N1CCN(Cc2cc(C#N)ccc2Cl)CC1 [Example 191]

# Biological target: T2, TRAF6-Ubc13 binding in HEK293T cells (Homo sapiens, UniProt Q9Y4K3)
# T2 construct: RING-Zincfinger1 (RZ1) domain (residues 50-159) of human TRAF6 wildtype; expressed in transfected cells; host or cells: HEK 293T
# T2 sequence (Q9Y4K3 50-159): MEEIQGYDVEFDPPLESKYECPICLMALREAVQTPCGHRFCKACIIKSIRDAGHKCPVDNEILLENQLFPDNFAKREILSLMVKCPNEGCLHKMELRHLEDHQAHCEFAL
# Test: Co-immunoprecipitation of HA-TRAF6 and Ubc13 in HEK 293T cells
# Type: cell-based
# Settings: not given
# Experimental: To study the interaction of TRAF6 and Ubc13 in cells, 1×10^6 293T cells were seeded and after 18 hours cells were transfected with 1 μg pEF-HA empty or pEF-HA-TRAF6 RZ1 plasmid using the X-tremeGENE HP DNA transfection reagent (Roche). 6 hours upon transfection, cells were treated with compound or DMSO. After 42 hours further incubation, cells were harvested in Co-IP lysis buffer and HA-TRAF6 was immunoprecipitated with anti-HA affinity matrix (Roche). Binding of Ubc13 to TRAF6 was examined in Western Blot analysis.
row,SMILES,interaction of endogenous Ubc13 with HA-tagged TRAF6 (co-immunoprecipitation)
1,"Cc1nn(-c2ccc3nnc(C)n3n2)c(C)c1CCC(=O)N1CCN(Cc2ccccc2)CC1 [HZM06-1, 1-(4-benzylpiperazin-1-yl)-3-(3,5-dimethyl-1-(3-methyl-[1,2,4]triazolo[4,3-b]pyridazin-6-yl)-1H-pyrazol-4-yl)propan-1-one]",also active in cells
2,"COc1cccc(CN2CCN(C(=O)CCc3c(C)nn(-c4ccc5nnc(C)n5n4)c3C)CC2)c1 [HZM06-2, 1-(4-(3-methoxybenzyl)piperazin-1-yl)-3-(3,5-dimethyl-1-(3-methyl-[1,2,4]triazolo[4,3-b]pyridazin-6-yl)-1H-pyrazol-4-yl)propan-1-one]",also active in cells
3,"Cc1nn(-c2ccc3nnc(C)n3n2)c(C)c1CCC(=O)N1CCN(Cc2ccc(F)cc2)CC1 [HZM06-3, 1-(4-(4-fluorobenzyl)piperazin-1-yl)-3-(3,5-dimethyl-1-(3-methyl-[1,2,4]triazolo[4,3-b]pyridazin-6-yl)-1H-pyrazol-4-yl)propan-1-one]",also active in cells
4,"Cc1nn(-c2ccc3nnc(C)n3n2)c(C)c1CCC(=O)N1CCC(c2ccccc2)CC1 [HZM06-6, 3-(3,5-dimethyl-1-(3-methyl-[1,2,4]triazolo[4,3-b]pyridazin-6-yl)-1H-pyrazol-4-yl)-1-(4-phenylpiperidin-1-yl)propan-1-one]",also active in cells
5,"Cc1nn(-c2ccc3nnc(C)n3n2)c(C)c1CCC(=O)N1CCC(c2ccccn2)CC1 [HZM06-7, 3-(3,5-dimethyl-1-(3-methyl-[1,2,4]triazolo[4,3-b]pyridazin-6-yl)-1H-pyrazol-4-yl)-1-(4-(pyridin-2-yl)piperidin-1-yl)propan-1-one]",also active in cells; also recorded: most active analogs

# Same assay, conditions: listed as HZM06-07
row,SMILES,interaction of endogenous Ubc13 with HA-tagged TRAF6 (co-immunoprecipitation)
1,"Cc1nn(-c2ccc3nnc(C)n3n2)c(C)c1CCC(=O)N1CCC(c2ccccn2)CC1 [HZM06-7, 3-(3,5-dimethyl-1-(3-methyl-[1,2,4]triazolo[4,3-b]pyridazin-6-yl)-1H-pyrazol-4-yl)-1-(4-(pyridin-2-yl)piperidin-1-yl)propan-1-one]",demonstrated inhibition of TRAF6-Ubc13 binding
